A word on the GI50: it is the concentration that inhibits growth by half.

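1) Cells in 96-well plates. 2) Compound, 48 h, 5 concentrations. 3) Linear interpolation between surrounding doses. 4) Unreached endpoint = highest concentration. At the GI50, growth is halved.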 The source made the active and inactive calls. Cut-off read from the data, not from the text of the source: active = GI50 up to about 1.1 µM and inactive = higher. Residues, ends and D or L forms follow the SMILES beside them. *: point of attachment. Boc = CC(C)(C)OC(=O)*; Bz = O=C(c1ccccc1)*

Among the test systems are COLO 205; NCI/ADR-RES; HCC 2998; TK-10; ACHN; HT-29; OVCAR-3; OVCAR-4; MDA-MB-231; SNB-75; A549; NCI-H226; DU-145; IGROV-1; SF-268; SW-620; SK-MEL-5; SF-295; Malme-3M; SR.
What all share (assay): DTP human tumour cell line panel, 48 h

As to `COc1cccc(/C=C2/Sc3scc(-c4ccccc4)[n+]3C2=O)c1O`, the GI50 in the test with COLO 205 is 31.8 µM (inactive); in the test on NCI/ADR-RES, 17.7 µM (inactive); in the test with HCC 2998 it was 16.6 µM (inactive); in the test with TK-10 it was 31 µM (inactive); with ACHN it was 18.4 µM (inactive); in the test on HT-29, 20.8 µM (inactive). The GI50 in the test with OVCAR-3 is 26.6 µM (inactive); with OVCAR-4, 29.6 µM (inactive); with MDA-MB-231, 23.5 µM (inactive); with SNB-75, 28.6 µM (inactive); in the test on A549, 38.8 µM (inactive); in the test with NCI-H226 it was 19.4 µM (inactive). Moreover, the GI50 in the test with DU-145 is 22.1 µM (inactive); with IGROV-1, 15.2 µM (inactive); in the test on SF-268, 41.2 µM (inactive); with SW-620, 18.1 µM (inactive); in the test with SK-MEL-5 it was 14.4 µM (inactive); in the test on SF-295 it was 37.3 µM (inactive).

Regarding `CC(=O)OCc1nc(C#N)c(N)o1`, the GI50 in the test on COLO 205, in the test on HCC 2998, with Malme-3M, with TK-10, in the test with ACHN and in the test with SR was > 100 µM (inactive) throughout. The GI50 in the test on HT-29, in the test on OVCAR-3, in the test with OVCAR-4, in the test on MDA-MB-231, in the test on NCI-H226 and in the test with DU-145 was > 100 µM (inactive) in each case. Moreover, the GI50 in the test with IGROV-1, in the test with SF-268, in the test with SW-620, with SK-MEL-5 and in the test with SF-295 was > 100 µM (inactive) each time.

Consider `CC1(C)CC(=O)C(=CNC(=O)c2ccncc2)C(=O)C1`, for which the GI50 in the test with COLO 205, in the test on NCI/ADR-RES, in the test on HCC 2998, in the test on TK-10, in the test with ACHN and in the test with HT-29 was > 100 µM (inactive) each time. Moreover, the GI50 in the test on OVCAR-3, in the test with OVCAR-4, with MDA-MB-231, in the test on SNB-75, in the test on A549 and with NCI-H226 was > 100 µM (inactive) throughout. In addition, the GI50 in the test with DU-145, in the test with IGROV-1, in the test with SF-268, with SW-620, in the test with SK-MEL-5 and with SF-295 was > 100 µM (inactive) in each case.

`O=C(Nc1cccc([N+](=O)[O-])c1)c1nnn(-c2cccc([N+](=O)[O-])c2)c1O`: the GI50 in the test with COLO 205, in the test on NCI/ADR-RES, in the test on Malme-3M, in the test on ACHN, with SR and with HT-29 was > 100 µM (inactive) throughout. In addition, the GI50 in the test with MDA-MB-231, in the test with SNB-75, in the test with A549, with NCI-H226, with DU-145 and with IGROV-1 was > 100 µM (inactive) in each case. The GI50 in the test with SF-268, in the test with SW-620, in the test with SK-MEL-5 and with SF-295 was > 100 µM (inactive) each time.

Take `O=S1(=O)OCCCOS(=O)(=O)C1Br`: the GI50 with COLO 205, with NCI/ADR-RES, with HCC 2998, in the test on Malme-3M, in the test on TK-10 and in the test on ACHN was > 100 µM (inactive) in each case. Moreover, the GI50 in the test with SR, in the test on HT-29, with OVCAR-3, in the test on OVCAR-4, with SNB-75 and with A549 was > 100 µM (inactive) in each case. The GI50 in the test with NCI-H226, in the test with DU-145, in the test with SF-268, in the test on SW-620, in the test on SK-MEL-5 and in the test on SF-295 was > 100 µM (inactive) each time.

As for `O=C1/C(=C/c2ccccc2)CN(C(=O)OCc2ccccc2)C/C1=C\c1ccccc1`, the GI50 was 16.1 µM (inactive) in the test with COLO 205; 7.06 µM (inactive) in the test with HCC 2998; 30.4 µM (inactive) with Malme-3M; 27.5 µM (inactive) with TK-10; 12.5 µM (inactive) in the test with ACHN; 1.53 µM (inactive) in the test on SR. Further, the GI50 in the test with HT-29 is 7.69 µM (inactive); with OVCAR-3 it was 1.68 µM (inactive); in the test on OVCAR-4 it was 11.6 µM (inactive); in the test on MDA-MB-231, 17.8 µM (inactive); with SNB-75, > 31.6 µM (inactive); in the test on A549 it was 28.1 µM (inactive). In addition, the GI50 with NCI-H226 was 26.2 µM (inactive); with DU-145 it was 54.8 µM (inactive); with IGROV-1 it was 14.1 µM (inactive); with SF-268, 13.8 µM (inactive); in the test with SW-620, 1.81 µM (inactive); in the test on SK-MEL-5, 16.8 µM (inactive). In the test with SF-295, the GI50 was 12.8 µM (inactive).

Turning to `COC(=O)C1=C(CCC[C@H](C)O[Si](C)(C)C(C)(C)C)NC(=O)N2[C@@H](CCO)CC[C@H]12`, the GI50 in the test with COLO 205 was 17.6 µM (inactive); in the test with NCI/ADR-RES, 13.9 µM (inactive); in the test on Malme-3M it was 12.5 µM (inactive); with TK-10, 18.6 µM (inactive); in the test with ACHN, 16.2 µM (inactive); in the test with HT-29, 15.4 µM (inactive). Further, the GI50 in the test on OVCAR-3 is 13.3 µM (inactive); in the test on OVCAR-4 it was 16.5 µM (inactive); in the test on MDA-MB-231, 16.2 µM (inactive); in the test on SNB-75, 15.7 µM (inactive); in the test with A549, 12.3 µM (inactive); in the test on NCI-H226 it was 14.6 µM (inactive). Further, the GI50 with DU-145 is 19.1 µM (inactive); in the test on IGROV-1, 15.8 µM (inactive); with SF-268, 14.6 µM (inactive); with SW-620, 20.1 µM (inactive); in the test with SK-MEL-5, 7.82 µM (inactive); in the test on SF-295 it was 11.7 µM (inactive).

For `O=C(Cc1ccccc1)c1ccc2[nH]c(=O)oc2c1`, the GI50 in the test on COLO 205 was 66.2 µM (inactive); in the test with NCI/ADR-RES it was 18.4 µM (inactive); with TK-10, 97.3 µM (inactive); in the test with ACHN, 41.4 µM (inactive); in the test on SR, 38.3 µM (inactive); in the test on HT-29, 37.5 µM (inactive). For the same molecule, the GI50 is 35.2 µM (inactive) with OVCAR-3; 36.1 µM (inactive) in the test with MDA-MB-231; 0.126 µM (active) in the test on SNB-75; 1.22 µM (inactive) in the test with NCI-H226; 62.2 µM (inactive) in the test with DU-145; 9.53 µM (inactive) in the test with IGROV-1. The GI50 with SF-268 is 16.5 µM (inactive); in the test with SW-620, 52.1 µM (inactive); in the test on SF-295 it was 38.2 µM (inactive).

With `OCC(O)C(O)C(C=NNc1ncnc2ccc(Br)cc12)=NNc1ncnc2ccc(Br)cc12` (centres undefined), the GI50 in the test with COLO 205 is 0.255 µM (active); in the test with Malme-3M, 0.378 µM (active); in the test with TK-10 it was 8.45 µM (inactive); in the test on ACHN, 0.729 µM (active); in the test on SR it was 0.492 µM (active); in the test on HT-29, 0.556 µM (active). In addition, the GI50 with OVCAR-3 was 0.339 µM (active); in the test with OVCAR-4, 0.383 µM (active); in the test on MDA-MB-231, 1.88 µM (inactive); with SNB-75, 2.46 µM (inactive); in the test on A549 it was 2.88 µM (inactive); in the test on NCI-H226 it was 1.67 µM (inactive). For the same molecule, the GI50 in the test on DU-145 is 1.34 µM (inactive); in the test with IGROV-1, 0.726 µM (active); in the test on SF-268 it was 1.29 µM (inactive); in the test on SW-620, 0.809 µM (active); with SK-MEL-5, 0.968 µM (active); in the test with SF-295 it was 3.25 µM (inactive).

Regarding `CC(NC(=O)C(Cc1ccc(OC(=O)c2ccccc2)cc1)NC(=O)OC(C)(C)C)C(=O)NC(Cc1ccccc1)C(=O)NCC(N)=O` (centres undefined) (Boc-Y(Bz)AFG-NH2; configuration not given here), the GI50 was 29.1 µM (inactive) in the test with COLO 205; > 100 µM (inactive) in the test with NCI/ADR-RES; 20.2 µM (inactive) in the test on HCC 2998; 20.8 µM (inactive) in the test with Malme-3M; 20.8 µM (inactive) with TK-10; 23 µM (inactive) in the test with ACHN. Moreover, the GI50 is 19.1 µM (inactive) in the test with HT-29; 20.9 µM (inactive) in the test on OVCAR-4; 19.4 µM (inactive) in the test with MDA-MB-231; 22.8 µM (inactive) with SNB-75; 23.4 µM (inactive) in the test on A549; 20.9 µM (inactive) in the test on NCI-H226. For the same molecule, the GI50 in the test with DU-145 is 20.4 µM (inactive); with IGROV-1 it was 20.4 µM (inactive); with SF-268 it was 19.6 µM (inactive); in the test on SW-620, 31.1 µM (inactive); in the test on SK-MEL-5, 26.3 µM (inactive); in the test with SF-295, 18.7 µM (inactive).

Consider `CC(C)C1OC(=O)C=C1Sc1ccccc1` (centres undefined), for which the GI50 with COLO 205 is > 100 µM (inactive); in the test with HCC 2998, > 100 µM (inactive); with Malme-3M it was 80.7 µM (inactive); with TK-10, > 100 µM (inactive); in the test on ACHN, > 100 µM (inactive); in the test on SR it was > 100 µM (inactive). The GI50 with HT-29, in the test on OVCAR-3, in the test on OVCAR-4, in the test with MDA-MB-231, in the test on SNB-75 and with A549 was > 100 µM (inactive) each time. In addition, the GI50 with NCI-H226, in the test on DU-145, with IGROV-1, with SF-268, in the test with SW-620 and with SK-MEL-5 was > 100 µM (inactive) in each case. Besides, the GI50 in the test with SF-295 was > 100 µM (inactive).

The values above are taken from ChEMBL document CHEMBL1201862, “PubChem BioAssay data set” (2004).
